Read-outs that look alike come from different tables or passages of the source.
Tests used:
[1] = biological target: mouse P23H opsin mutant (Mus musculus, UniProt P15409, P23H); test: β-Gal fragment complementation assay: rescue of P23H opsin transport from ER to plasma membrane, U2OS(PLC-EA/P23H-PK) cells; assay type: cell-based; settings: for Emax: U2OS; for dependence of activity on light exposure of cells: cells exposed to light vs dark
From the text: U2OS(PLC-EA/P23H-PK) cells. A U2OS stable cell line was generated by DiscoveRx, Inc. (Fremont, CA, USA) for the β-Gal fragment complementation assay used in the small molecule HTS for rescue of P23H opsin transport. U2OS cells that continually express P23H-PK and PLC-EA fusion proteins were generated. Briefly, this small subunit of […] (PK fragment) was fused to the C-terminal of the mouse P23H opsin mutant, while the large EA fragment, a subunit of […], was fused with PLC, a plasma membrane anchored peptide. Both constructs were subcloned by DicoveRx, Inc. and transferred into U2OS cells by viral infections. Positive clones were selected under treatment with hygromycin and geneticin.
Briefly, U2OS(PLC-EA/P23H-PK) cells were suspended in assay medium at 3×10^5 cells mL^−1. The cell suspension was dispensed into 384-well plates (Greiner Bio-one, Monroe, NC, USA) at 20 μL per well, with a Multidrop dispenser (Thermo Scientific, Waltham, MA, USA). Plates with cells then were centrifuged at 200 g for 15 s before incubation at 37° C. with 5% CO2. Plates were removed 24 h later for treatment with tested compounds. A total of 248 plates containing 79,080 compounds from three small molecule libraries were paired with an equal number of assay plates with cultured cells. Due to a limited capacity, these plates were assayed in seven batches. An average of 56.3 nL of 10 mM compound in DMSO was dispensed into each well from column 3 to 22 of paired assay plates using a 50 nL 384-pintool system, such that the final concentration of each compound was 22.52 μM on average. […] Each assay plate was shaken for 5 s before further incubation at 37° C. with 5% CO2. […] Assay plates were incubated in the dark for 60-90 min, and luminescence was read from each assay plate with an Envision microplate reader (PerkinElmer) during a 0.1 s per well integration time. The mean and s.d. of readouts in column 2 of each plate were calculated as Mean0% and SD0%, whereas the average and s.d. of readouts in column 23 were calculated as Mean100% and SD100%. Equation 1: Activity scores (%)=(RLUcp−Mean0%)/(Mean100%−Mean0%)×100%, where RLUcp is the relative luminescence unit derived for cells treated with a compound. Equation 2: Z′-factor=1-3×(SD0%+SD100%)/(Mean100%−Mean0%); Equation 3: signal-to-background (S/B) ratio=Mean100%/Mean0%. Activities of all tested compounds were registered with their compound ID by GeneData Screener (Genedata, Basel, Switzerland) and Pipeline Pilot software (Accelrys, San Diego, CA, USA). Hits, cherry-picked from a separate stock dose-dependent activity test, were selected with an activity score cutoff at 20%. Activity of each hit was tested again with the β-Gal fragment complementation assay in a 10-dose series with each dose tested in triplicate. The 10 doses tested were 80, 40, 20, 10, 5, 2.5, 1.25, 0.625, 0.313, and 0.156 μM. Dose-dependent curves of each hit compound were fitted with GeneData and Origin software.
Detailed synthetic steps are described in FIG. 18. […] YC-002-YC-021 were purchased from commercial vendors including Enamine LLC (Monmouth Jct., NJ, USA), Matrix Scientific (Columbia, SC, USA) and Tokyo Chemical Industry Co., Ltd. (Portland, OR, USA). […] Activities of YC compounds were tested with the β-Gal fragment complementation assay, as described in a prior section. All YC compounds were tested at 10 doses, each in triplicate: 80, 40, 20, 10, 5, 2.5, 1.25, 0.625, 0.313, and 0.156 μM.

[2] = biological target: T1, bovine opsin (Bos taurus, UniProt P02699); test: Ligand-opsin binding by Trp fluorescence quenching in ROS disc membranes; settings: for EC50: opsin in disc membranes, read-out: EC50 of Trp fluorescence quenching at 330 nm
T1 construct: ROS membranes were isolated from bovine retinas under dim red light; from tissue; host or cells: bovine retina rod outer segment (ROS) membranes, bleached with hydroxylamine
T1 sequence (P02699 whole entry): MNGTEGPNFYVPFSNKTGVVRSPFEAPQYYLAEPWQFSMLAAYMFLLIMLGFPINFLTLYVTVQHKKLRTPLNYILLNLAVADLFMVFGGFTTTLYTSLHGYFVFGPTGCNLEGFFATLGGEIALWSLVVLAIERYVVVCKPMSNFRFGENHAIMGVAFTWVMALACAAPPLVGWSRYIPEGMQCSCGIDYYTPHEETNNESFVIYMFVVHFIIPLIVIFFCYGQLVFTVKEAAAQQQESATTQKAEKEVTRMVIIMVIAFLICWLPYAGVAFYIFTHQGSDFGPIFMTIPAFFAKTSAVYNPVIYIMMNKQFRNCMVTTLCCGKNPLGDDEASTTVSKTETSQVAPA
Protocol: ROS membranes were isolated from bovine retinas under dim red light. To remove membrane associated proteins, ROS membranes were washed with a hypotonic buffer composed of 5 mM bis-tris propane (BTP) and 1 mM EDTA, pH 7.5, followed by gentle homogenization with subsequent centrifugation at 25,000 g for 30 min. This procedure was repeated four times. The final membrane pellet was suspended in 10 mM sodium phosphate buffer, pH 7.0, and 50 mM hydroxylamine to a 3 mg mL^−1 concentration of rhodopsin, placed on ice and illuminated with a 150 Watt bulb for 30 min. Membranes were pelleted by centrifugation at 16,000 g for 5 min and then washed four times with 10 mM sodium phosphate buffer, pH 7.0, and 2% bovine serum albumin followed by 4 washes with 10 mM sodium phosphate buffer, pH 7.0, and 2 washes with 20 mM BTP, pH 7.5, and 100 mM NaCl. The concentration of opsin was measured with a UV-visible spectrophotometer and quantified using the absorption coefficient ε280 nm=81,200 M^−1 cm^−1.
Emission spectra were recorded with a Perkin Elmer L55 Luminescence Spectrophotometer at 20° C. between 300 and 450 nm after excitation at 295 nm, with excitation and emission slit bands set at 5 and 10 nm, respectively. Changes in Trp fluorescence (ΔF/F0; where ΔF is the difference between the initial Trp fluorescence recorded at 330 nm (F0) and Trp fluorescence recorded at 330 nm at a specified YC-001 concentration) were plotted as a function of the ligand concentration. Binding curves were fitted by the Hill function using Origin software for each compound and the EC50 was calculated. All experimental data were corrected for background and self-absorption of excitation and emission light (inner filter effect).

[3] = Table 1, scores relative to 9-cis-retinal, read-out: β-Gal fragment complementation assay Activity score (%) EC50
[4] = Table 1, experimental maximum, read-out: β-Gal fragment complementation assay Activity score (%) Max (Exp)
[5] = Table 1, fitted maximum, read-out: β-Gal fragment complementation assay Activity score (%) Max (fit)

Row | SMILES | EC50 [1, 3] | Emax [1, 4] | Emax [1, 5] | dependence of activity on light exposure of cells [1] | EC50 [2] | activity in rescuing P23H opsin transport (in words) [1] | effect on Trp fluorescence ([2]; FIG. 3G) | time to maximum activity ([1]; FIG. 1F, 40 μM YC-001) | EC50 ([1]; HTS hit confirmation, FIG. 1E, read-out: potency) | EC50 ([1]; Table 5, more than one site modified, read-out: Potency) | Emax ([1]; read-out: Efficacy (%)) | effect of co-treatment with scriptaid on P23H opsin transport ([1]; YC-001 and scriptaid co-treatment) | effect of co-treatment with 9-cis-retinal ([1]; with 5 μM 9-cis-retinal, FIG. 1G)
1 | CC1=C(/C=C/C(C)=C\C=C\C(C)=C\C=O)C(C)(C)CCC1 [9-cis-retinal, reference compound] | 2.7 µM | 123% | 159% | required that cells be incubated in the dark | 1.2 ± 0.1 µM |  |  |  |  |  |  |  | 
2 | O=C(CCCCCN1C(=O)c2cccc3cccc(c23)C1=O)NO [Scriptaid, reference compound] | 3.09 µM | 98% | 98.2% |  |  | strong activity | didn't affect Trp fluorescence |  |  |  |  |  | 
3 | O=C1OCC(c2ccc(Cl)s2)=C1c1cccs1 [YC-001] | 8.7 µM | 310% | 310% | not affected | 0.98 ± 0.05 µM |  |  | ≤ 15 h | 7.8 µM | 8.39 µM | 248% | synergistic effect | No additive effect

— patent US12251373B2, “Compounds and methods of treating retinal degeneration” (CASE WESTERN RESERVE UNIVERSITY, priority 2017, dated 2025)
